ChEMBL document CHEMBL1201862, “PubChem BioAssay data set” (2004)
Calls of active or inactive are those of the source.

Experiments:
[1] = target: T1, Sentrin-specific protease 7 (Homo sapiens, UniProt Q9BQF6); type: functional;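 also: Luminescence-based dose-response confirmation of ultra-high-throughput screening hits, measuring inhibition of SENP7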
T1 sequence (Q9BQF6 whole entry): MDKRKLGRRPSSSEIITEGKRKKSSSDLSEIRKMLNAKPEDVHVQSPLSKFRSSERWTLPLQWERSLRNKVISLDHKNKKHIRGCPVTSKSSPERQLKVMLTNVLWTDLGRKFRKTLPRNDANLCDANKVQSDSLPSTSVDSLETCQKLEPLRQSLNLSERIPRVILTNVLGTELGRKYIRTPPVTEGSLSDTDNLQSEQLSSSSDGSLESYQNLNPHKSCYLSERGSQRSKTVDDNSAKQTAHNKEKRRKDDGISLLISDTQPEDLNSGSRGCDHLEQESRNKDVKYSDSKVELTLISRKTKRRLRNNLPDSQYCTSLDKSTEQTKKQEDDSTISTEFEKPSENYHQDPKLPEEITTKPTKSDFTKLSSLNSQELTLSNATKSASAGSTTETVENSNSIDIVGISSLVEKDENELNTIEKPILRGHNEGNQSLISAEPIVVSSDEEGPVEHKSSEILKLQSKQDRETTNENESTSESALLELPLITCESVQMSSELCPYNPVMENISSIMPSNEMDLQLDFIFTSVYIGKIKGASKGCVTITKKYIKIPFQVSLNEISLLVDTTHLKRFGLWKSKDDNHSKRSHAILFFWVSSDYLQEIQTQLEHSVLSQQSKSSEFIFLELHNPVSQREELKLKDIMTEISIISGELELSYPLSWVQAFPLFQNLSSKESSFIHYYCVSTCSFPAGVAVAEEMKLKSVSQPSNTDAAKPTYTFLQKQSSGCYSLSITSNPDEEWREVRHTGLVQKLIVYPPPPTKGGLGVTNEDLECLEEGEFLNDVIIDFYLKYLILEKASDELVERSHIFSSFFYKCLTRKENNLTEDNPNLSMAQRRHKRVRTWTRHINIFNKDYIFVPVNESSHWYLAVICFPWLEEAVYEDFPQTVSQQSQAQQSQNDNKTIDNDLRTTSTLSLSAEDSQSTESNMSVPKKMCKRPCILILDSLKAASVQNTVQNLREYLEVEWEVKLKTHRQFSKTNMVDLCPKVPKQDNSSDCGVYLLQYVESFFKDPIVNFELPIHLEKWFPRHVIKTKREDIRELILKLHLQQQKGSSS

[2] = target: Cytochrome P450 2C9 (Homo sapiens, UniProt P11712); conditions: Potency
[3] = target: T2, Caspase-3 (Homo sapiens, UniProt P42574); type: functional;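 also: Dose-response selectivity test against caspase-3 for candidate inhibitors of sentrin-specific proteases (SENPs)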
T2 sequence (P42574 whole entry): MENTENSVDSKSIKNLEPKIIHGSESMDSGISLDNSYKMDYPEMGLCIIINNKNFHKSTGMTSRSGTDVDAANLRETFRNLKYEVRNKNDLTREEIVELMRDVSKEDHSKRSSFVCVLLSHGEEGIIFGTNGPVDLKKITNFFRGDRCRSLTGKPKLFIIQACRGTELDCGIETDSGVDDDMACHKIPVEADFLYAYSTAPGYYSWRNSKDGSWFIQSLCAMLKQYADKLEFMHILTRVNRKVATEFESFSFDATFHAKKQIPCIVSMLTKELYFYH

[4] = target: T3, Sentrin-specific protease 8 (Homo sapiens, UniProt Q96LD8); type: functional;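 also: luminescence read-out of SENP8 inhibition, dose-response confirmation following an ultra-high-throughput screen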
T3 sequence (Q96LD8 whole entry): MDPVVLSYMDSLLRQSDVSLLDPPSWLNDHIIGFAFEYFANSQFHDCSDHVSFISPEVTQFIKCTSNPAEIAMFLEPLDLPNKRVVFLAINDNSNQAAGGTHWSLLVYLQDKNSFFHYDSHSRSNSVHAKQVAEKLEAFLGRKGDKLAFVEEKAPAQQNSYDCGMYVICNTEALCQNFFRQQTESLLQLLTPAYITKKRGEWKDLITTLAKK

[5] = target: T4, Sentrin-specific protease 6 (Homo sapiens, UniProt Q9GZR1); type: functional;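 also: Luminescence-based dose-response confirmatory assay of SENP6 inhibition, following up an ultra-high-throughput screen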
T4 sequence (Q9GZR1 whole entry): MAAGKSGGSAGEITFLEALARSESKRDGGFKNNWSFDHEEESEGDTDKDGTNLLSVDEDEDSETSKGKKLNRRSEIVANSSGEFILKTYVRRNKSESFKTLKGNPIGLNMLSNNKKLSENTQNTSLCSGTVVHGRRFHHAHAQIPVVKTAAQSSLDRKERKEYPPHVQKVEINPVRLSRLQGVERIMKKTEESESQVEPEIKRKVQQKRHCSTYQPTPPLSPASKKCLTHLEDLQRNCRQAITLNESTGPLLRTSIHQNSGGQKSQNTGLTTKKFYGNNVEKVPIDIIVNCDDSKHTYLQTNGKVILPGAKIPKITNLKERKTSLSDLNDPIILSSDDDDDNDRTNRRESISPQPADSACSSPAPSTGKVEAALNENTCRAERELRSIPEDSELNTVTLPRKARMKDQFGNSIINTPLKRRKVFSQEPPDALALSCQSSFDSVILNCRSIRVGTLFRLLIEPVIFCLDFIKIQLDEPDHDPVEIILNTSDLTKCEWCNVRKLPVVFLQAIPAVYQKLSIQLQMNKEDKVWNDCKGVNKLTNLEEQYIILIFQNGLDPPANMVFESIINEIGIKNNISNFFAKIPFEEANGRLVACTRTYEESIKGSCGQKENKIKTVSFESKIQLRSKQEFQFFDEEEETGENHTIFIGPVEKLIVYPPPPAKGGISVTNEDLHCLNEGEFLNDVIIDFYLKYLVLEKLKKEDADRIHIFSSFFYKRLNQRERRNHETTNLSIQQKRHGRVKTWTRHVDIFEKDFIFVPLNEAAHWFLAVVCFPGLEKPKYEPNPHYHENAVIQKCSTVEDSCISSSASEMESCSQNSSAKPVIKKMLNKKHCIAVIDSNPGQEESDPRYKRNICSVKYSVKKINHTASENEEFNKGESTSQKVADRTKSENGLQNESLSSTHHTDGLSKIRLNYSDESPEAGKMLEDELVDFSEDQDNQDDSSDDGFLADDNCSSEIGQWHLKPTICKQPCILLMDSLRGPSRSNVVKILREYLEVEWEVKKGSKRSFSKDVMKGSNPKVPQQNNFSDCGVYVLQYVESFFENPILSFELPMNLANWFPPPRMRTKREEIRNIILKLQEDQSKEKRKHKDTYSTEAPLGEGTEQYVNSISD

[6] = target: Melanin-concentrating hormone receptor 1 (Homo sapiens, UniProt Q99705); assay: Fluorescence-based counterscreen for antagonists of the G-protein coupled receptor 7 (GPR7): cell-based high throughput dose response assay to identify antagonists of the melanin-concentrating hormone receptor 1 (MCHR1).; type: functional
[7] = target: FAD-linked sulfhydryl oxidase ALR (Homo sapiens, UniProt P55789); assay: ALR-catalysed DTT oxidation blockers – biochemical, H2O2 detection, luminescence, cherry-pick, dose response (AID 493248)
[8] = target: Voltage-dependent T-type calcium channel subunit alpha-1H (Homo sapiens, UniProt O95180); type: functional;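 also: channel activity triggered by adding a high calcium stimulation buffer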
[9] = target: Cytochrome P450 3A4 (Homo sapiens, UniProt P08684); conditions: Potency;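 also: confirmatory qHTS run detecting inhibitors and substrates of CYP3A4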
[10] = target: T5, Corticotropin-releasing factor receptor 2/Corticotropin-releasing factor-binding protein (Homo sapiens, UniProt P24387+Q13324); assay: Dose Response confirmation of uHTS hits for small molecule antagonists of the CRF-binding protein and CRF-R2 receptor complex.; type: functional; conditions: read-out: IC50_Mean
T5 sequence (Q13324 whole entry): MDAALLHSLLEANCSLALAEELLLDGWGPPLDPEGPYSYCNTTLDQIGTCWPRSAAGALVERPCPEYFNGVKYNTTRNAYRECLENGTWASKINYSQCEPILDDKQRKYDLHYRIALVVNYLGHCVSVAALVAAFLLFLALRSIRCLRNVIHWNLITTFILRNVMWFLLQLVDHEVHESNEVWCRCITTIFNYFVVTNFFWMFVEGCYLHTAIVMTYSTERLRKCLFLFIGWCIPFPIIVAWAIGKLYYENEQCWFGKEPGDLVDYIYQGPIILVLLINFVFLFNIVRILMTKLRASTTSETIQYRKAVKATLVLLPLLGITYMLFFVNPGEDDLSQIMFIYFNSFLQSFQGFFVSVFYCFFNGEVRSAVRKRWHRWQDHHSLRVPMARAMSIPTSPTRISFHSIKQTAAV
T5 sequence (P24387 whole entry): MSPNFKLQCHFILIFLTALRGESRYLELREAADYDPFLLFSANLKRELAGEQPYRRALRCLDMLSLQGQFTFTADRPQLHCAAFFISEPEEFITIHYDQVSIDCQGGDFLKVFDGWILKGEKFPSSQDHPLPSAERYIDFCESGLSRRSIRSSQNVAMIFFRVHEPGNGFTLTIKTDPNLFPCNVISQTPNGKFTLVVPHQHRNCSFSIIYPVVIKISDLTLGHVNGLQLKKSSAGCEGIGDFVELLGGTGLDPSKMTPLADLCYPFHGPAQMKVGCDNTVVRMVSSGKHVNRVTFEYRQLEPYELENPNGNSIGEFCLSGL

[11] = target: T5, Corticotropin-releasing factor receptor 2/Corticotropin-releasing factor-binding protein; assay: activators of CRF receptor 2 with binding protein – uHTS hits, confirmation (AID 602473); type: functional; conditions: read-out: EC50_Mean
[12] = target: T6, Carboxy-terminal domain RNA polymerase II polypeptide A small phosphatase 1 (Homo sapiens, UniProt Q9GZU7); assay: CTDSP1 inhibitors, concentration-response, biochemical, absorbance readout, ultra-high-throughput screen actives (AID 540297); type: functional
T6 sequence (Q9GZU7 whole entry): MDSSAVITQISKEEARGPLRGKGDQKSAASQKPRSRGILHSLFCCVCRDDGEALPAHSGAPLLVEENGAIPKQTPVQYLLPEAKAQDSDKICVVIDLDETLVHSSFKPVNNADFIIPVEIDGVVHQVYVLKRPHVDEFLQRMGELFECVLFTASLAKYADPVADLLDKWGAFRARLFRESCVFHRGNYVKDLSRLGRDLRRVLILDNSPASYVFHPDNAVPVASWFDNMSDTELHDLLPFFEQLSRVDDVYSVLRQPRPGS

[13] = target: Eukaryotic translation initiation factor 4E (Mus musculus, UniProt P63073); assay: blockers of eIF4G binding by eIF4E – biochemical, TR-FRET, dose response (AID 855); type: functional;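 also: potency for disrupting eIF4E binding to eIF4GI seen as loss of FRET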
Sequence of Eukaryotic translation initiation factor 4E (P63073 whole entry): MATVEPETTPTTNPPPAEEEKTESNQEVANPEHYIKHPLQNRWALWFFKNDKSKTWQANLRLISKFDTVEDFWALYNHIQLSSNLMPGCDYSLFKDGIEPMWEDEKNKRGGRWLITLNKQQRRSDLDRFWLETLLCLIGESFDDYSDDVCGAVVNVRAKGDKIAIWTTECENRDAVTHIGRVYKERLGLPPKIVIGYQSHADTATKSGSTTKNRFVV

Sequence of Voltage-dependent T-type calcium channel subunit alpha-1H (O95180 whole entry): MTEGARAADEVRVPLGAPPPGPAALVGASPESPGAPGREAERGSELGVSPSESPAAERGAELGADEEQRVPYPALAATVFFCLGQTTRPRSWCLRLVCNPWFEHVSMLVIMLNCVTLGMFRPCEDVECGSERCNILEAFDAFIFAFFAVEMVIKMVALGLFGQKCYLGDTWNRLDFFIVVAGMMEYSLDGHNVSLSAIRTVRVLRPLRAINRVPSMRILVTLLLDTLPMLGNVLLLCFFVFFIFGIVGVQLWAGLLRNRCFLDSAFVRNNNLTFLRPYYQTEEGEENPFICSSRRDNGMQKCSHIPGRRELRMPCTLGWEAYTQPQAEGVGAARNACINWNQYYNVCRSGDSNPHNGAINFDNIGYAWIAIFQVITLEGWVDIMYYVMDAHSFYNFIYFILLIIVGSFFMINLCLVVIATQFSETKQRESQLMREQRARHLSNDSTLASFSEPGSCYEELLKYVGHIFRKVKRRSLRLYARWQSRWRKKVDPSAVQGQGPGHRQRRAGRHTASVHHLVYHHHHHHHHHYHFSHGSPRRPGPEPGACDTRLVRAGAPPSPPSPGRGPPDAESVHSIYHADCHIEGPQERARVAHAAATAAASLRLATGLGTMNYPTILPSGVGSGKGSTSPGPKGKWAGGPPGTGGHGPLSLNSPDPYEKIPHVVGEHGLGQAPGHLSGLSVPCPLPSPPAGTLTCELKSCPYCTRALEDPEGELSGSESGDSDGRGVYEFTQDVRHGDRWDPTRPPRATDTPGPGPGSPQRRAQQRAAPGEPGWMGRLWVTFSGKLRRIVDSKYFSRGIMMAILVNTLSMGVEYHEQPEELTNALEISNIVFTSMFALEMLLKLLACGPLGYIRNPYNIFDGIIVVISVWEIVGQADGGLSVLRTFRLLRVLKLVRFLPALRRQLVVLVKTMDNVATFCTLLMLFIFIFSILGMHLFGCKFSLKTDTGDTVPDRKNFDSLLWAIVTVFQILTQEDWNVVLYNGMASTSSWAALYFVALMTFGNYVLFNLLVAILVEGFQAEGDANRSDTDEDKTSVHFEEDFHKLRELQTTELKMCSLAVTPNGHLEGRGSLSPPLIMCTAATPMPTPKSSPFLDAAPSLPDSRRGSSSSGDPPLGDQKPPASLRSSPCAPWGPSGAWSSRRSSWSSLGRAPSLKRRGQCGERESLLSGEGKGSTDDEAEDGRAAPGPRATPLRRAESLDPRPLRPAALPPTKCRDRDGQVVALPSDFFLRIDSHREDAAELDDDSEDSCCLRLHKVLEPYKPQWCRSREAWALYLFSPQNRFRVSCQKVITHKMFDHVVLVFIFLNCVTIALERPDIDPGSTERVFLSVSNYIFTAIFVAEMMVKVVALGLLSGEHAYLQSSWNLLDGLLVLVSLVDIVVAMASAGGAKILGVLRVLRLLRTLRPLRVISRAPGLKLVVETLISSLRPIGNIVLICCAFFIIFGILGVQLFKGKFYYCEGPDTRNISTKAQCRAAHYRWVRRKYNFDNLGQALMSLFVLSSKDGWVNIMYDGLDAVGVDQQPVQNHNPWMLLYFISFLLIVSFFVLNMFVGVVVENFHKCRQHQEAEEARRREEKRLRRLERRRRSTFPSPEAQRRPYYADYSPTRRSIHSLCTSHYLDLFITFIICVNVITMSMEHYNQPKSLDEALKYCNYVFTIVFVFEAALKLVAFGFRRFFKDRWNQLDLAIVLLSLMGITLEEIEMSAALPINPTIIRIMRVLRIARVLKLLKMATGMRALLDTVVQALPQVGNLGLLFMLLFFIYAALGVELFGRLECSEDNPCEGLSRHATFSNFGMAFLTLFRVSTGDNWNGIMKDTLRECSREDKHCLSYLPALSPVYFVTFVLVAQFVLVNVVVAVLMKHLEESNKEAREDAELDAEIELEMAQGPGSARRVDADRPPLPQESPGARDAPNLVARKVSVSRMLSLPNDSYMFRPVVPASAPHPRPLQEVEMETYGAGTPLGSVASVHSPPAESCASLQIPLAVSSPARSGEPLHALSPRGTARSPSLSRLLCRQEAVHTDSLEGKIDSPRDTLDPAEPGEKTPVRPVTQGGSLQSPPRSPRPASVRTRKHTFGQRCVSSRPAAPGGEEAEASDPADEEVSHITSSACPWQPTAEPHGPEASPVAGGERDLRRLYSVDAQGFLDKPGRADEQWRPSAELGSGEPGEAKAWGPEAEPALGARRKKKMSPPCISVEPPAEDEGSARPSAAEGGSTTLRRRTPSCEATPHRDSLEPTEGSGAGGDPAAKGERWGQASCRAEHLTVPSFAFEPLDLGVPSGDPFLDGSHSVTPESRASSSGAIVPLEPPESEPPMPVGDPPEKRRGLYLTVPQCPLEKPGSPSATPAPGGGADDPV
Sequence of Cytochrome P450 2C9 (P11712 whole entry): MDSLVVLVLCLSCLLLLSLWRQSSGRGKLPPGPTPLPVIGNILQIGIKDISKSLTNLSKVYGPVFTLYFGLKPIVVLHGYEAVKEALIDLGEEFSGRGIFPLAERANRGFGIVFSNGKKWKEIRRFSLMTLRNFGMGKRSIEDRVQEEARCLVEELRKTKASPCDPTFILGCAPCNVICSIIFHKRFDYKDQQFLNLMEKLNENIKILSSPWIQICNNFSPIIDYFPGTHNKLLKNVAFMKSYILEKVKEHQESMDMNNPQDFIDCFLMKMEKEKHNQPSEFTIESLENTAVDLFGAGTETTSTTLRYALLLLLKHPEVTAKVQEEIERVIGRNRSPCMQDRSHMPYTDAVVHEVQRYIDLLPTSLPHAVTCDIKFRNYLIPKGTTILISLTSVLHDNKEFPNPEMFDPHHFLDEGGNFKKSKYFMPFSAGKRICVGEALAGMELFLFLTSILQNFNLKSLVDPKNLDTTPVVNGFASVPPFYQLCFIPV
Sequence of Cytochrome P450 3A4 (P08684 whole entry): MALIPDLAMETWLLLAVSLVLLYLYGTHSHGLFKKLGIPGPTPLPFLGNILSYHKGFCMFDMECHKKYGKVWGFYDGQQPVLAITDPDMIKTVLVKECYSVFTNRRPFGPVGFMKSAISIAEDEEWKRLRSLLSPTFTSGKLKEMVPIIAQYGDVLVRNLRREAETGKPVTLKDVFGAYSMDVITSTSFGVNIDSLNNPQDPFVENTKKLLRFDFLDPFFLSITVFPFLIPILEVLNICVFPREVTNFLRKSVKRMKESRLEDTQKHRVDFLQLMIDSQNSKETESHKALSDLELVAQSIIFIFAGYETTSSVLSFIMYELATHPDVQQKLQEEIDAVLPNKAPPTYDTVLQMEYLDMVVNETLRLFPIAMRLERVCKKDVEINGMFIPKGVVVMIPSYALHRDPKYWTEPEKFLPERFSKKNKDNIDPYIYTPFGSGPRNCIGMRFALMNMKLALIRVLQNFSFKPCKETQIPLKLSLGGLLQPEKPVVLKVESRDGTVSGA
Sequence of FAD-linked sulfhydryl oxidase ALR (P55789 whole entry): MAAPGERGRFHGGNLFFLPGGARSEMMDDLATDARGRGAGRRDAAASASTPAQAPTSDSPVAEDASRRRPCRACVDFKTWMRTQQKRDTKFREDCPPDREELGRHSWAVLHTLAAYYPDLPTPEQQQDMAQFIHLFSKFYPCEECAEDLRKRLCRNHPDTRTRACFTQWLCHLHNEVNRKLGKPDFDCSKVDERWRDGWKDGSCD
Sequence of Melanin-concentrating hormone receptor 1 (Q99705 whole entry): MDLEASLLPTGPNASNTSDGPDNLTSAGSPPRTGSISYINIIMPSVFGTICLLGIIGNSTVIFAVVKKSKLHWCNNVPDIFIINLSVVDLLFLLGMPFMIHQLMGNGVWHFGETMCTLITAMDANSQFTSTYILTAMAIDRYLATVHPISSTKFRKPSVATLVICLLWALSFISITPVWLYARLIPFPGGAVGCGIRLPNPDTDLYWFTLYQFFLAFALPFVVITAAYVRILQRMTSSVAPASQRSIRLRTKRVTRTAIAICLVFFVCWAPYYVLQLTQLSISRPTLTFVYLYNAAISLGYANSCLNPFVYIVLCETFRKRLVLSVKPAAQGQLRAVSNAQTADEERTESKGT

For `COc1ccc(/C=C/C(=O)c2ccccc2O)cc1`, the IC50 [1] was 3.93 µM (active), the AC50 [2] was 3.98 µM (inconclusive) and the IC50 [3] was 23.1 µM (active). The IC50 [4] was 10.6 µM (active) and the IC50 [5] was 6 µM (active).

For `CCn1c(CNc2ccc(Cl)cc2)nnc1SCCN1CCCCC1`, the IC50 [6] was 21.5 µM (not active) and the AC50 [7] was 8.49 µM (active).

`Cc1nn(Cc2c(F)c(F)c(F)c(F)c2F)c(C)c1NC(=O)c1ccc(COc2ccc(F)cc2)o1` was tested, and the EC50 [8] was 4.88 µM (active).

With `CC1CCC2C(=O)OC(CO)CN2C1c1ccc(Br)cc1` (stereo unspecified) the AC50 [2] was 3.98 µM (inconclusive) and the AC50 [9] was 3.16 µM (inconclusive).

In the case of `Cc1ccccc1NC(=O)c1ccc(-c2ccc(Cl)cc2Cl)o1`, the IC50 [10] is reported as > 47.1 µM (inactive), the EC50 [8] is reported as 7.96 µM (active) and the EC50 [11] is reported as > 53 µM (inactive).

In the case of `FC(F)(F)c1cc(C(F)(F)F)c2ccc(N3CCN(c4ccc(Cl)cc4)CC3)nc2n1`, the EC50 [8] is reported as 5.43 µM (active).

With `Cc1ccc([N+](=O)[O-])cc1NC(=O)Cc1cccs1` the IC50 [12] was 4.16 µM (active) and the IC50 [13] was 50 µM (inactive).
